We go through one compound from patent US20220133702A1, “CYSTIC FIBROSIS TRANSMEMBRANE CONDUCTANCE REGULATOR MODULATORS FOR TREATING AUTOSOMAL DOMINANT POLYCYSTIC KIDNEY DISEASE” (The Johns Hopkins University, priority 2020, published 2022).

One experiment deals with PN (pkd1-null) cells. As to the kind of experiment: In vitro cystogenesis (3D Matrigel culture, cyst size by cross-sectional area). Format: cell-based, mouse. As to the method: Cells were treated with DMSO (control), VX-809, or C18 (10 μM) plus or minus forskolin on Days 0, 2, 4, 6, 8, 10, 12, 14. […] Cells were treated with DMSO (control), C18 or VX-809 (10 μM) from 9-16 (7) days. All pictures were taken on Day 16. Columns represent means±SEM (n=6). The average cyst size from the control group was considered 100%, and the sizes of the rest of the cysts were compared with this average. ****P<0.0001. Cyst size was estimated from the cross-sectional area;
VX-809 Reduces Cyst Growth in Vitro Experiments were conducted using a model ADPKD cell line (PH=pkd1+/− heterozygote control; PN=pkd−/− knockout), clonally isolated from single parental clones obtained from a pkdf1/− mouse that was manufactured in an ImmortoMouse containing the H-2Kb-tsA58 gene. The null cells (PN) stably express the Cre recombinase. All the cells proximal tubule origin. To determine how VX-809 reduces cyst growth, cysts were grown in the presence of forskolin (FIG. 2). […] Taken together with the animal data provided in FIG. 1, these in vitro results clearly indicate that CFTR correctors are effective in reducing cyst growth.
In vitro cytogenesis. To induce differentiation, cells were kept at 37° C. for at least 6 days without gamma-interferon. After one week, the cells were used for 3D culture or other experiments. Growth factor-reduced Matrigel #354230 (Corning) was used, and cell dilutions were prepared so that there were approximately 6,000 cells in 25 μl of medium; 25 μl of cell preparation was mixed with 50 μl of Matrigel. Pictures were taken with a Zeiss Axio microscope. Cystic areas were analyzed with ImageJ (provided by the NIH).

The subject of experiment [1] is kidneys of Pkd1^fl/fl; Pax8^rtTA; TetO-cre mice. Nature of the experiment: Ki67 staining of kidney sections (proliferation). Format: in vivo, mouse. The following applies: 30 mg/kg, vs DMSO-treated mice. The text has this: FIG. 3A, FIG. 3B, FIG. 3C, and FIG. 3D show cell proliferation is reduced by VX-809. (FIG. 3A-FIG. 3B) Proliferation in kidneys of Pkd1^fl/fl; Pax8^rtTA; TetO-cre mice. Representative images of Ki67 (a cellular marker for proliferation) staining of PN21 kidney sections from DMSO- and VX-809-treated mice. Arrows indicate Ki67-positive cells. Pictures were acquired with a Zeiss microscope equipped with 20× objective. (FIG. 3C) Summary data for Ki67-positive cells. Columns represent averages±standard errors of DMSO (vehicle)-treated (n=3) and VX-809-treated (n=3) mice. Statistical analysis was performed using a two-tailed Student's t test. (FIG. 3D) Proliferation in PN cells. PN cells were treated with VX-809 or DMSO). The bromodeoxyuridine (BrdU) concentration in the cells was measured by using a BrdU cell proliferation assay kit (Millipore Sigma#2750) according to the manufacturer's protocol. Columns represent averages±SEs of the OD of BrdU at 450/550 […]. Data were analyzed using Student's t-test, with n=5-7. Methods were described previously (62). *P>0.05; **P<0.01;
A hallmark of the cysts in ADPKD is an increase in proliferation in response to cAMP. Therefore, it was determined whether VX-809 would affect proliferation.

The test system of the next experiment is HSP27, 70, 90 and HSP40. Nature of the experiment: Western blot of heat shock proteins in kidney tissue lysates. The following applies: 30 mg/kg BW, cyst-induced mouse kidneys. Format: in vivo. The method, then: FIG. 7A, FIG. 7B, FIG. 7C, FIG. 7D, FIG. 7E, and FIG. 7F show chaperone expression is altered in mice by VX-809. (FIG. 7A-FIG.7B) Representative Western blot images of HSP27, 70, 90 and HSP40 in lysates of kidney tissue from no cyst induced (ND), cyst induced with Doxycycline (D) or cyst induced pkd−/− mice treated with VX-809 (D+VX-809) 30 mg/kg BW. (FIG. 7C, FIG. 7D, FIG. 7E, and FIG. 7F). Columns represent averages±standard errors of HSP27, 70, 90 and HSP40 expression. Data were analyzed by non-parametric t-test. n=4 for each treated and control groups. Black lines between lanes represent representative experiments from the same gel. *P<0.05; **P<0.01;
To facilitate their growth in the kidney, cysts have developed an altered network of proteins that most likely serves to protect them from stress . Next, it was determined whether VX-809 would alter the levels of Hsps in pkd−/− mice and in PN cells. […] Hsp 27, 70 and 90 are all elevated in cystic kidneys compared to normal controls. […] There is no change in Hsp40. […] Both sets of data are consistent with an alteration in the heat shock response to cyst growth.
On the technique in general: In western blotting, separated proteins are transferred to a membrane and probed.

Another experiment concerns GRP78, Ero1, and GADD153. Nature of the experiment: Western blot of ER stress markers in kidney tissue lysates. The following applies: 30 mg/kg BW, cyst-induced mice. Format: in vivo, mouse. The method, then:
FIG. 11A. FIG. 11B, FIG. 11C, FIG. 11D, and FIG. 11E show expression of ER stress markers GRP78, Ero1, and GADD in Pkd1-1 mice treated with VX-809. (FIG. 11A & FIG. 11D) Representative Western blot images of GRP78, ErO1, and GADD in lysates of kidney tissue from no cyst induced (ND), cyst induced with doxycycline (D) or cyst induced pkd−/− mice treated with VX-809 (D+VX-809) 30 mg/kg BW. (FIG. 11B, FIG. 11C and FIG. 11E) Columns represent averages±standard errors of GRP78, Ero1, and GADD153 expression. Data were analyzed by non-parametric t-test. n=4 for each treated and control groups. Black lines between lanes represent representative experiments from the same gel but loaded in different lanes. **P<0.01, ***P<0.001;
Given that VX-809 alters an ensemble of Hsps, it was evaluated whether VX-809 alters proteins associated with ER stress. To address this question, the levels of three ER stress-associated proteins were measured, 78-kDa glucose-regulated protein (GRP78), ER oxidoreductin 1 (Ero1) and DNA damage-inducible protein 3 (GADD153), also known as C/EBP homologous protein (CHOP) (37). The results are depicted in FIG. 11 show no changes in GRP78 or Ero1 in response to VX-809.

“Also recorded” adds a separate entry of the source.

In the case of `Cc1ccc(NC(=O)C2(c3ccc4c(c3)OC(F)(F)O4)CC2)nc1-c1cccc(C(=O)O)c1` [VX-809, lumacaftor], in the experiment on PN (pkd1-null) cells (10 μM from Days 9-16, in the presence of forskolin), the “size of established cysts” value is given as “reduces the size of established cysts”. Also, in the experiment on PN (pkd1-null) cells (10 μM on Days 0, 2, 4, 6, 8, 10, 12, 14, plus or minus forskolin), the cyst growth entry is recorded as “reduce cyst growth equally well; also recorded: inhibits cyst growth”. In the experiment with PN (pkd1-null) cells (every other day or Days 9-16, in the presence of forskolin), the cyst size entry was “dramatically reducing cyst size”. Further, the “cell proliferation (Ki67-positive cells)” value in experiment [1] was “significantly inhibit cell proliferation”. Besides, in the experiment with HSP27, 70, 90 and HSP40, the Hsp27 expression entry is on record as “significantly less expression”, the Hsp40 expression result is “no change”, the Hsp70 expression result is “significantly less expression” and the Hsp90 expression entry is given as “significantly less expression”. Also, in the experiment with GRP78, Ero1, and GADD153, the Ero1 level entry was “no changes”, the GADD153 level entry is given as “equally dramatic reduction” and the GRP78 level result is listed as “no changes”.
